Measured values: article PMC4610307 (Journal of Medicinal Chemistry, 2015)

Key:
PRMT1 [1] = molecular target: T1, PRMT1 (Homo sapiens, UniProt Q99873); assay: IC50 and nH determination, PRMT1; assay type: biochemical
CARM1/PRMT4 = molecular target: T2, CARM1/PRMT4 (Homo sapiens, UniProt Q86X55); assay: IC50 and nH determination, CARM1; assay type: biochemical; details: ratio of IC50 values
T2 sequence (Q86X55 1-608): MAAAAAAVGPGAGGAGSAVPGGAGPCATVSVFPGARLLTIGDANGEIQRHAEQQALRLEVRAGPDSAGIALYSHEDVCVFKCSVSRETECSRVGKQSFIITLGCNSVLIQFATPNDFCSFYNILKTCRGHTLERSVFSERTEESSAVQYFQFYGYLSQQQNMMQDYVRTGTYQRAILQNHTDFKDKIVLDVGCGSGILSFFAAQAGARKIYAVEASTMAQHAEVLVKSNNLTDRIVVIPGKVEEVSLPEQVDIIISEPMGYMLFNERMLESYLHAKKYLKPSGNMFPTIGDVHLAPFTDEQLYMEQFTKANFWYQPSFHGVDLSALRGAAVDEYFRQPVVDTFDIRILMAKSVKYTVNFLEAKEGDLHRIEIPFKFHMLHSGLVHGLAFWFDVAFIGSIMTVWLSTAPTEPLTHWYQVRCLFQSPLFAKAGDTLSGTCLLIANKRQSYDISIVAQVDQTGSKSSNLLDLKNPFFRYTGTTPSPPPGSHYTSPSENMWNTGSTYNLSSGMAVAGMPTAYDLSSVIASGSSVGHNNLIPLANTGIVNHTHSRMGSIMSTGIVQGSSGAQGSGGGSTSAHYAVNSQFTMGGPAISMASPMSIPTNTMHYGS

PRMT5 = PRMT5 (Homo sapiens, UniProt O14744); assay: IC50 and nH determination, PRMT5; assay type: biochemical; details: ratio of IC50 values
PRMT8 = PRMT8 (Homo sapiens, UniProt Q9NR22); assay: IC50 and nH determination, PRMT8; assay type: biochemical; details: ratio of IC50 values
His6x-PRMT1 = His6x-PRMT1 (Homo sapiens, UniProt Q99873); assay: Single-dose inhibition study with PRMT1 enzyme; assay type: biochemical; details: compound at 10 μM, N.I. = no inhibition
PRMT1 [2] = molecular target: T1, PRMT1; assay: Fluorescence titration of compound 50 by PRMT1; assay type: binding; details: excitation 620 nm
Meg01 cells = assay: Cell viability assay; assay type: cell-based
MOLM13 cells = assay: Cell viability assay; assay type: cell-based
HEL cells = assay: Cell viability assay; assay type: cell-based
[3] = test system: total protein arginine methylation in Meg01, MOLM13, and HEL cells; assay: Western blot of total protein arginine methylation in treated leukemia cells; assay type: cell-based; details: 24 h of treatment; anti-methyl-R antibodies

T1 sequence (Q99873 1-353 isoform Q99873-3): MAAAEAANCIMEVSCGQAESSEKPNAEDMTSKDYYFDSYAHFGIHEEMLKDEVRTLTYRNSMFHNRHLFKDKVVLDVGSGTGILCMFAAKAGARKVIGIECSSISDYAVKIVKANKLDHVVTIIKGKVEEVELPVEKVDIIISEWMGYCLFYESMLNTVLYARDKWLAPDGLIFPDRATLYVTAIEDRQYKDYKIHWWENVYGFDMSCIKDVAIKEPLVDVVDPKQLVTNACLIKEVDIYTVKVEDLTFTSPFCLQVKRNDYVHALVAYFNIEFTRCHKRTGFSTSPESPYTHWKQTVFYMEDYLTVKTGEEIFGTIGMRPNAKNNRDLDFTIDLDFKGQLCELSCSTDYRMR
Chain of His6x-PRMT1 (Q99873 1-353 isoform Q99873-3): as above
Chain of PRMT8 (Q9NR22 whole entry, species assumed): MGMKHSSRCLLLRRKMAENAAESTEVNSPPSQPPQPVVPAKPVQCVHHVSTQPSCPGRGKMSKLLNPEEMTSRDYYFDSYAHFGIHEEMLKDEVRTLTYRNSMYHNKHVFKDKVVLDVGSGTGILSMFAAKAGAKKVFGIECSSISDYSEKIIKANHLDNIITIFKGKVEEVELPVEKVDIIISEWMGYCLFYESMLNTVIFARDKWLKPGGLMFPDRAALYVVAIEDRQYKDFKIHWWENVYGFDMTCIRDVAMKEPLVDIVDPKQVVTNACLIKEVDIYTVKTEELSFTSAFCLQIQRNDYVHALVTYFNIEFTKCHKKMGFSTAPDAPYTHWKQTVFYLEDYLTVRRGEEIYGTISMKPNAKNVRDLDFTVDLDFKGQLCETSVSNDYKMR
Chain of PRMT5 (O14744 whole entry, species assumed): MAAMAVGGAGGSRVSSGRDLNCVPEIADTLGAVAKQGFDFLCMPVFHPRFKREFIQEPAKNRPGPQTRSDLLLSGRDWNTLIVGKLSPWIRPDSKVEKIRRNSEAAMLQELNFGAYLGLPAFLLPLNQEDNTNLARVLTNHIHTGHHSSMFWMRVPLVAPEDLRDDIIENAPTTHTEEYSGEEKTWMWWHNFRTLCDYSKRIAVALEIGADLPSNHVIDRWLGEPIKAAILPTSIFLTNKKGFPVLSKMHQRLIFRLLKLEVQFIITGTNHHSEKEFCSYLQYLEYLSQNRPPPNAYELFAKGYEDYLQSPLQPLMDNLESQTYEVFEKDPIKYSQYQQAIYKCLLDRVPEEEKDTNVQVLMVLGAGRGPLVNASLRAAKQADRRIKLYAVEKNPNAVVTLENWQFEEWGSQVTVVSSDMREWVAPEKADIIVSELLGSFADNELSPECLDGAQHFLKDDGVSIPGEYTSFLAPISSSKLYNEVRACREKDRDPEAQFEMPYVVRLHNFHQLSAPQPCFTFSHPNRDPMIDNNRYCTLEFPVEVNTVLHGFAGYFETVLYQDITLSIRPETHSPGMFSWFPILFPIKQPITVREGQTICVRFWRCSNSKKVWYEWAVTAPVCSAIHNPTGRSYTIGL
Chain of PRMT5 (Q9BQA1 whole entry partner, species assumed): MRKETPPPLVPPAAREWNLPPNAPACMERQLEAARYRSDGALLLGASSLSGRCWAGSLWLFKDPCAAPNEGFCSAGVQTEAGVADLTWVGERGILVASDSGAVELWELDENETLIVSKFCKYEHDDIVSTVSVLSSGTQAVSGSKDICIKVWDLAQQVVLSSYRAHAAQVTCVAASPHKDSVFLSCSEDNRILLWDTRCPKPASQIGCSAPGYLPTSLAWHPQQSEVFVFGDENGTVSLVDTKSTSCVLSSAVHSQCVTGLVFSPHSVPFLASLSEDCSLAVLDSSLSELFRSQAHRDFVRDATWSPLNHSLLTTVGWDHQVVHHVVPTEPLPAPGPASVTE

In the case of `CC1(C)C(/C=C/C=C2/N(CCCc3ccccc3)c3ccc4ccccc4c3C2(C)C)=[N+](CCCc2ccccc2)c2ccc3ccccc3c21.[Br-]` [Compound E-8], the “fold more potent on PRMT1 than naphthothiazolium counterpart 47” value (PRMT1 [1]; IC50 0.61 μM vs 3.05 μM) is reported as “about 5 fold”.
`C(/C=C/c1sc2c3ccccc3ccc2[n+]1CCCc1ccccc1)=C1/Sc2c(ccc3ccccc23)N1CCCc1ccccc1.[I-]` [Compound 47, 3-(3-Phenylpropyl)-2-((1E,3Z)-3-(3-(3-phenylpropyl)naphtho[2,1-d]thiazol-2(3H)-ylidene)prop-1-en-1-yl)naphtho[2,1-d]thiazol-3-ium Iodide] was tested, and the “selectivity for PRMT1 over CARM1” value (CARM1/PRMT4) was “about 2 fold”, the “selectivity for PRMT1 over PRMT5” value (PRMT5) was “about 2 fold” and the “selectivity for PRMT1 over PRMT8” value (PRMT8) was “more than 9 fold”.
`CC1(C)C(/C=C/C=C2/N(CCCc3ccccc3)c3ccc(Cl)cc3C2(C)C)=[N+](CCCc2ccccc2)c2ccc(Cl)cc21.[Br-]` [Compound 24, 5-Chloro-2-((E)-3-((E)-5-chloro-3,3-dimethyl-1-(3-phenylpropyl)indolin-2-ylidene)prop-1-en-1-yl)-3,3-dimethyl-1-(3-phenylpropyl)-3H-indol-1-ium Bromide] was tested, and the “selectivity for PRMT1 over other PRMTs (CARM1, PRMT5, and PRMT8)” value (PRMT1 [1]; overall statement) was “no selectivity”.
For `CCCCN1/C(=C/C=C/C2=[N+](CCCC)c3ccccc3C2(C)C)C(C)(C)c2ccccc21.[I-]` [Compound E-6], the “Inhibition (10 μM)” value (His6x-PRMT1; PRMT1, 10 µM) was “no inhibition”.
With `CCN1/C(=C/C(C)=C/c2sc3c4ccccc4ccc3[n+]2CC)Sc2c1ccc1ccccc21` [Compound 48, 3-Ethyl-2-((1E,3Z)-3-(3-ethylnaphtho[2,1-d]thiazol-2(3H)-ylidene)-2-methylprop-1-en-1-yl)naphtho[2,1-d]thiazol-3-ium Iodide] the inhibition at 10 µM (His6x-PRMT1; read-out: Inhibition (10 μM), PRMT1) was 90%.
In the case of `CCCCN1/C(=C/C=C(Br)/C=C/C2=[N+](CCCC)c3ccc(Br)cc3C2(C)C)C(C)(C)c2cc(Br)ccc21.[I-]` [Compound 50, 5-Bromo-2-((1E,3Z)-3-bromo-5-((E)-5-bromo-1-butyl-3,3-dimethylindolin-2-ylidene)penta-1,3-dien-1-yl)-1-butyl-3,3-dimethyl-3H-indol-1-ium Iodide], the “fluorescence intensity increase upon binding to PRMT1” value (PRMT1 [2]) is reported as “about 6 fold”, the “concentration that significantly inhibited leukemia cell growth” value (Meg01 cells) is reported as 100 nM and the “concentration that significantly inhibited leukemia cell growth” value (MOLM13 cells) is reported as 100 nM. For the same compound, the “concentration that significantly inhibited leukemia cell growth” value (HEL cells) was 200 nM and the “total protein arginine methylation level” value [3] was “significant loss of total protein arginine methylation”.
